The source of these data is US7297797B2, “Pyrrolines” (Bayer CropScience AG, priority 2002, dated 2007).

Data set [1] deals with larvae of the mustard beetle (Phaedon cochleariae). The experiment in a line: Phaedon larvae test. It is filed as in vivo. To be noted: 168 h, 100 ppm active compound, cabbage leaves (Brassica oleracea) dipped, after 7 d, read-out: Kill rate in % after 7 d. How it is done:
(§1) Phaedon Larvae Test • Solvent: 7 parts by weight of dimethylformamide • Emulsifier: 2 parts by weight of alkylaryl polyglycol ether To produce a suitable preparation of active compound, 1 part by weight of active compound is mixed with the stated amounts of solvent and emulsifier, and the concentrate is diluted with emulsifier-containing water to the desired concentration. Cabbage leaves (Brassica oleracea) are treated by being dipped into the preparation of active compound of the desired concentration and are populated with larvae of the mustard beetle (Phaedon cochleariae) while the leaves are still moist. After the desired period of time, the kill in % is determined. 100% means that all beetle larvae have been killed; 0% means that none of the beetle larvae have been killed. In this test, for example, the following compounds of the preparation examples show good activity: […]

For data set [2], the system named is greenhouse red spider mite (Tetranychus urticae). The experiment in a line: Tetranychus test (OP-resistant/dip treatment). The class given is in vivo. The following applies: 168 h, 100 ppm active compound, infested bean plants (Phaseolus vulgaris) dipped, OP-resistant, after 7 d, read-out: Kill rate in % after 7 d. The protocol: Tetranychus Test (OP-Resistant/Dip Treatment)
• Solvent: 7 parts by weight of dimethylformamide • Emulsifier: 2 parts by weight of alkylaryl polyglycol ether
To produce a suitable preparation of active compound, 1 part by weight of active compound is mixed with the stated amounts of solvent and emulsifier, and the concentrate is diluted with emulsifier-containing water to the desired concentration.
Bean plants (Phaseolus vulgaris) which are heavily infested by all stages of the greenhouse red spider mite (Tetranychus urticae) are treated by being dipped into a preparation of active compound of the desired concentration.
After the desired period of time, the activity in % is determined. 100% means that all spider mites have been killed; 0% means that none of the spider mites have been killed.
In this test, for example, the following compounds of the preparation examples show good efficacy: […]

Data set [3] has as its system caterpillars of the army worm (Spodoptera frugiperda). The experiment in a line: Spodoptera frugiperda test. It is filed as in vivo. To be noted: 168 h, 100 ppm active compound, cabbage leaves (Brassica oleracea) dipped, after 7 d, read-out: Kill rate in % after 7 d. The protocol:
as §1, with “Spodoptera frugiperda” for “Phaedon Larvae”, “caterpillars” for “larvae”, “army worm (Spodoptera frugiperda)” for “mustard beetle (Phaedon cochleariae)”, “caterpillars” for “beetle larvae”

Data set [4] deals with caterpillars of the diamondback moth (Plutella xylostella). The experiment in a line: Plutella test. The following applies: 100 ppm active compound, cabbage leaves (Brassica oleracea) dipped. It is filed as in vivo. How it is done:
as §1, with “Plutella” for “Phaedon Larvae”, “caterpillars” for “larvae”, “diamondback moth (Plutella xylostella)” for “mustard beetle (Phaedon cochleariae)”, “caterpillars” for “beetle larvae”

Data set [5] concerns caterpillars of the cotton bollworm (Heliothis armigera). The experiment in a line: Heliothis armigera test. The class given is in vivo. To be noted: Helicoverpa armigera, 168 h; 100 ppm active compound; soybean shoots (Glycine max) dipped; after 7 d; read-out: Kill rate in % after 7 d. The protocol:
as §1, with “Heliothis armigera” for “Phaedon Larvae”, “Soybean shoots (Glycine max)” for “Cabbage leaves (Brassica oleracea)”, “caterpillars” for “larvae”, “cotton bollworm (Heliothis armigera)” for “mustard beetle (Phaedon cochleariae)”, “caterpillars” for “beetle larvae”

The subject of data set [6] is caterpillars of the army worm (Spodoptera exigua). The experiment in a line: Spodoptera exigua test. It is filed as in vivo. To be noted: 100 ppm active compound, cabbage leaves (Brassica oleracea) dipped. How it is done:
as §1, with “Spodoptera exigua” for “Phaedon Larvae”, “caterpillars” for “larvae”, “army worm (Spodoptera exigua)” for “mustard beetle (Phaedon cochleariae)”, “caterpillars” for “beetle larvae”

Data set [7] can be described thus: log P determination by HPLC on reversed-phase column (EEC Directive 79/831 Annex V.A8). The class given is physicochemical. How it is done:
The log P values given in the preparation examples and tables above are determined in accordance with EEC Directive 79/831 Annex V.A8 by HPLC (High Performance Liquid Chromatography) on a reversed-phase column (C 18). Temperature: 43° C. In the acidic range, determination is carried out at pH 2.3 using the mobile phases 0.1% aqueous phosphoric acid and acetonitrile; linear gradient from 10% acetonitrile to 90% acetonitrile (in the tables marked with a)). In the neutral range, determination is carried out at pH 7.5 using the mobile phases 0.01 molar aqueous phosphate buffer solution and acetonitrile; linear gradient from 10% acetonitrile to 90% acetonitrile (in the tables marked with b)). Calibration is carried out using unbranched alkan-2-ones (of 3 to 16 carbon atoms) with known lopP values (determination of the log P values by the retention times using linear interpolation between two successive alkanones).

The mark [8] stands for this setting: reversed-phase C18 HPLC column; acidic range, pH 2.3, 0.1% aqueous phosphoric acid/acetonitrile, 43° C.; marked a) in tables, read-out: log P (pH 2.3).
[9] abbreviates: reversed-phase C18 HPLC column; neutral range, pH 7.5, 0.01 molar aqueous phosphate buffer/acetonitrile, 43° C.; marked b) in tables, read-out: log P (pH 7.5).

Each structure is given as a SMILES string. Like-named read-outs stand apart in the source and are kept apart here.

For `CC(C)(C)c1noc(-c2ccc(-c3ccc(C4CCC(c5c(F)cccc5F)=N4)c(F)c3)cc2)n1` (stereo not drawn) [Example 5, 3-tert-butyl-5-{4′-[5-(2,6-difluorophenyl)-3,4-dihydro-2H-pyrrol-2-yl]-3′-fluoro-1,1′-biphenyl-4-yl}-1,2,4-oxadiazole], the pest or weed control at 100 ppm in data set [1] worked out at 100%; in data set [2], 98%; in data set [3], 100%; in data set [5] it was 100%. In data set [4], the “Kill rate in % after 7 d” value was determined as 100%. In addition, in data set [6], the “Kill rate in after 7 d” value is given as 100%. Further, the chromatographic logP was determined as 5.79 in data set [7] (setting [8]) and 6.06 in data set [7] (setting [9]).
Take `CC(C)(C)c1nc(-c2ccc(-c3ccc(C4CCC(c5c(F)cccc5F)=N4)c(F)c3)cc2)no1` (stereo not drawn) [Example 6, 5-tert-butyl-3-{4′-[5-(2,6-difluorophenyl)-3,4-dihydro-2H-pyrrol-2-yl]-3′-fluoro-1,1′-biphenyl-4-yl}-1,2,4-oxadiazole]: the pest or weed control at 100 ppm in data set [1] came to 100%; in data set [2], 98%; in data set [3], 100%; in data set [5] it was 100%. For the same compound, in data set [4], the “Kill rate in % after 7 d” value stood at 100%. Besides, the “Kill rate in after 7 d” value in data set [6] amounted to 100%. Further, the figures for the chromatographic logP in data set [7] (setting [8]) and in data set [7] (setting [9]) were 5.65 and 5.97, respectively.
With `Fc1cc(-c2ccc(-c3noc(C(F)(F)F)n3)cc2)ccc1C1CCC(c2c(F)cccc2F)=N1` (stereo not drawn) [Example 7], the pest or weed control at 100 ppm in data set [1] amounted to 100%; in data set [2] it was 98%; in data set [3], 100%; in data set [5], 100%. Further, in data set [4], the “Kill rate in % after 7 d” value stood at 100%. For the same compound, the “Kill rate in after 7 d” value in data set [6] was found to be 100%. Besides, the chromatographic logP was 5.43 in data set [7] (setting [8]) and 5.72 in data set [7] (setting [9]).
